Reference: patent US11246865B2 (priority 2017, dated 2022)
Several values for one entry are separate records, joined by “and”; a condition that tells them apart may be missing. Identical values can stand only once. Entries after “also recorded” stand apart in the source; their conditions may differ.

Experiments:
[1] = Study 1: tolerance and cross-tolerance, tail pinch test (MPE); format: in vivo, rat; details: for MPE on Day 1: all animals, both dose points and both time points (20 and 30 min); for time to maximal/complete tolerance: b.i.d. s.c. dosing, morphine 5.0 mg/kg, DPI-125 1.0 mg/kg; for antinociceptive effect / tolerance in DPI-125 tolerant animals: tolerant to 1.0 mg/kg DPI-125 BID; for antinociceptive effect / tolerance in DPI-125 tolerant animals / antinociceptive effect / tolerance in morphine tolerant animals: challenge morphine 5.0 or DPI-125 1.0 mg/kg; for antinociceptive effect / tolerance in morphine tolerant animals: tolerant to 5.0 mg/kg morphine BID
[2] = rat, in vivo
[3] = Studies 2 and 3: antinociceptive ED50 in naive and tolerant animals, tail pinch test; format: in vivo, rat; details: for ED50: Rattus norvegicus, sc, 20 min; for ED50 / antinociceptive ED50: 20 min tail pinch; for antinociceptive ED50: s.c.
[4] = rat, in vivo; remark: listed apart in the source
in vivo = details: rat
[5] = Preclinical toxicity profile; format: in vivo
Text: The preclinical toxicity profile of DPI-125 was as expected for an opioid compound, with two positive exceptions.

[6] = Phase 1 study DPI-125.IV.001, safety of single intravenous bolus doses; format: in vivo, human
Procedure: Given this positive preclinical data, Good Laboratory Practice (GLP) Investigational New Drug (IND) enabling toxicology studies were performed. DPI-125 was tested in human subjects in a PK and safety study. DPI-125.IV.001, was a randomized, single-center, double-blind, placebo-controlled, dose escalating Phase 1 study. The primary objective was to evaluate the safety of single doses of DPI-125 administered by intravenous bolus infusion in normal healthy adult subjects. Male and female subjects between 18 and 55 years of age, inclusive, who were in good health and who were not taking any medications were eligible for enrollment. For each dose group, cohorts of 6 subjects were randomized to receive either placebo (n=1) or DPI-125 for Injection (n=5) as a single bolus dose of 5, 10, 20, or 50 μg/kg administered over 2 minutes. A final cohort received 25 μg/kg administered over 1 minute. For this first in human study, it was decided that 50 μg/kg should be the highest dose to be tested so the maximum tolerated dose was not determined.

[7] = molecular target: T1, delta receptor in the mouse vas deferens (Mus musculus, UniProt P32300); test: Mouse vas deferens delta receptor agonism
T1 construct: from tissue; host or cells: mouse vas deferens
T1 sequence (P32300 whole entry): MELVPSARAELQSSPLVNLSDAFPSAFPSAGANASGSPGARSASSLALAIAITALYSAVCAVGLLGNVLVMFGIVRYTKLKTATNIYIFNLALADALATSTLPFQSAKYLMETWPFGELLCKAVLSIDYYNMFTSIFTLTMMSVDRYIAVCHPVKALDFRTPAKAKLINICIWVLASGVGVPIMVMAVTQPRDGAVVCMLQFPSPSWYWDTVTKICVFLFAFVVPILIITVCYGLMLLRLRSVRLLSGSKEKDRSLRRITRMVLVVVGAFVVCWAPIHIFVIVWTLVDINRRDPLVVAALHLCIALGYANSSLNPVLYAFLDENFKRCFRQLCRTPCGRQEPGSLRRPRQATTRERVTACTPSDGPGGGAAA

[8] = molecular target: T2, delta receptor in the mouse brain (Mus musculus, UniProt P32300); test: Mouse brain delta receptor agonism
T2 construct: from tissue; host or cells: mouse brain
T2 sequence (P32300 whole entry): as above

[9] = DPI-125 tolerant animals, challenge dose 1 (day 7), 30 min
[10] = DPI-125 tolerant animals, challenge dose 1 (day 7), morphine 5.0 or DPI-125 1.0 mg/kg s.c., 20 min
[11] = DPI-125 tolerant animals, challenge dose 2 (day 7.25), 20 min
[12] = DPI-125 tolerant animals, challenge dose 2 (day 7.25), 30 min
[13] = DPI-125 tolerant animals, challenge dose 3 (day 8), 20 min
[14] = DPI-125 tolerant animals, challenge dose 3 (day 8), 30 min
[15] = DPI-125 tolerant animals, challenge dose 4 (day 8.25), 20 min
[16] = DPI-125 tolerant animals, challenge dose 4 (day 8.25), 30 min
[17] = morphine tolerant animals, challenge dose 1 (day 6), 30 min
[18] = morphine tolerant animals, challenge dose 1 (day 6), morphine 5.0 or DPI-125 1.0 mg/kg s.c., 20 min
[19] = morphine tolerant animals, challenge dose 2 (day 6.25), 20 min
[20] = morphine tolerant animals, challenge dose 2 (day 6.25), 30 min
[21] = morphine tolerant animals, challenge dose 3 (day 7), 20 min
[22] = morphine tolerant animals, challenge dose 3 (day 7), 30 min
[23] = morphine tolerant animals, challenge dose 4 (day 7.25), 20 min
[24] = morphine tolerant animals, challenge dose 4 (day 7.25), 30 min
[25] = tolerance development, dose 1 (day 1), s.c. BID (morphine 5.0, DPI-125 1.0 mg/kg), 20 minutes post-drug
[26] = tolerance development, dose 1 (day 1), s.c. BID (morphine 5.0, DPI-125 1.0 mg/kg), 30 minutes post-drug
[27] = tolerance development, dose 2 (day 1.25), s.c. BID, 20 minutes post-drug
[28] = tolerance development, dose 2 (day 1.25), s.c. BID, 30 minutes post-drug
[29] = tolerance development, dose 3 (day 2), s.c. BID, 20 minutes post-drug
[30] = tolerance development, dose 3 (day 2), s.c. BID, 30 minutes post-drug
[31] = tolerance development, dose 4 (day 2.25), s.c. BID, 20 minutes post-drug
[32] = tolerance development, dose 4 (day 2.25), s.c. BID, 30 minutes post-drug
[33] = tolerance development, dose 5 (day 3), s.c. BID, 20 minutes post-drug
[34] = tolerance development, dose 5 (day 3), s.c. BID, 30 minutes post-drug
[35] = tolerance development, dose 6 (day 3.25), s.c. BID, 20 minutes post-drug
[36] = tolerance development, dose 6 (day 3.25), s.c. BID, 30 minutes post-drug
[37] = tolerance development, dose 7 (day 4), s.c. BID, 20 minutes post-drug
[38] = tolerance development, dose 7 (day 4), s.c. BID, 30 minutes post-drug
[39] = tolerance development, dose 8 (day 4.25), s.c. BID, 20 minutes post-drug
[40] = tolerance development, dose 8 (day 4.25), s.c. BID, 30 minutes post-drug
[41] = tolerance development, dose 9 (day 5), s.c. BID, 20 minutes post-drug
[42] = tolerance development, dose 9 (day 5), s.c. BID, 30 minutes post-drug
[43] = tolerance development, dose 10 (day 5.25), s.c. BID, 20 minutes post-drug
[44] = tolerance development, dose 10 (day 5.25), s.c. BID, 30 minutes post-drug
[45] = DPI-125 tolerant versus naive animals
[46] = healthy adults, single IV bolus 5-50 μg/kg

SMILES: CN1CC[C@]23c4c5ccc(O)c4O[C@H]2[C@@H](O)C=C[C@H]3[C@H]1C5 [Morphine, morphine, reference compound]
- Mean MPE [1, 9]: 2.63%
- Mean MPE [1, 10]: 1.76%
- Mean MPE [1, 11]: 0.00%
- Mean MPE [1, 12]: 1.75%
- Mean MPE [1, 13]: 3.51%
- Mean MPE [1, 14]: 0.00%
- Mean MPE [1, 15]: 0.88%
- Mean MPE [1, 16]: 0.00%
- MPE on Day 1 [1]: 100%
- time to maximal/complete tolerance [1]: 5 days
- Mean MPE [1, 17]: 4.4%
- Mean MPE [1, 18]: 4.4%
- Mean MPE [1, 19]: 0.9%
- Mean MPE [1, 20]: 2.6%
- Mean MPE [1, 21]: 0.0%
- Mean MPE [1, 22]: 0.9%
- Mean MPE [1, 23]: 2.6%
- Mean MPE [1, 24]: 1.8%
- Mean MPE [1, 25]: 100.0%
- Mean MPE [1, 26]: 100.0%
- Mean MPE [1, 27]: 100.0%
- Mean MPE [1, 28]: 100.0%
- Mean MPE [1, 29]: 78.9%
- Mean MPE ([1]; tolerance development, dose 3 (day 2), s.c. BID, 20 minutes post-drug, listed as morphine sulfate): 78.9±7.9%
- Mean MPE [1, 30]: 75.9%
- Mean MPE ([1]; tolerance development, dose 3 (day 2), s.c. BID, 30 minutes post-drug, listed as morphine sulfate): 78.9±8.6%
- Mean MPE [1, 31]: 56.6%
- Mean MPE [1, 32]: 57.9%
- Mean MPE [1, 33]: 33.8%
- Mean MPE [1, 34]: 46.5%
- Mean MPE [1, 35]: 32.9%
- Mean MPE [1, 36]: 24.1%
- Mean MPE [1, 37]: 23.7%
- Mean MPE [1, 38]: 20.6%
- Mean MPE [1, 39]: 7.0%
- Mean MPE ([1]; tolerance development, dose 8 (day 4.25), s.c. BID, 20 minutes post-drug, listed as morphine sulfate): 7.0±2.8%
- Mean MPE [1, 40]: 5.7%
- Mean MPE ([1]; tolerance development, dose 8 (day 4.25), s.c. BID, 30 minutes post-drug, listed as morphine sulfate): 5.7±1.8%
- Mean MPE [1, 41]: 3.1%
- Mean MPE ([1]; tolerance development, dose 9 (day 5), s.c. BID, 20 minutes post-drug, listed as morphine sulfate): 3.1±1.2%
- Mean MPE [1, 42]: 2.2%
- Mean MPE ([1]; tolerance development, dose 9 (day 5), s.c. BID, 30 minutes post-drug, listed as morphine sulfate): 2.2±1.0%
- Mean MPE [1, 43]: 5.3%
- Mean MPE [1, 44]: 3.9%
- antinociceptive effect / tolerance in DPI-125 tolerant animals [1]: complete tolerance
- antinociceptive effect / tolerance in DPI-125 tolerant animals ([1]; listed as morphine sulfate): no antinociceptive effects
- antinociceptive effect / tolerance in morphine tolerant animals [1]: no antinociceptive effects
- Therapeutic Ratio [2]: 2.1
- Fold Change of ED50 [3, 45]: 7.8 fold
- ED50 ([3]; DPI-125 tolerant animals): 15.8 mg/kg
- ED50 ([3]; morphine tolerant animals): 11.3 mg/kg
- ED50 ([3]; naive animals): 2.04 mg/kg
- Fold Change of ED50 ([3]; morphine tolerant versus naive animals): 5.5 fold
- antinociceptive ED50 ([3]; naive animals): 2.037 mg/kg
- Analgesic ED50 Tail Pinch [4]: 2.01 mg/kg
- ED50 (in vivo): 4.23 mg/kg

SMILES: C=CCN1C[C@H](C)N([C@H](c2ccsc2)c2cccc(O)c2)C[C@H]1C [DPI-125, (−)3-((S)-((2S,5R)-4-allyl-2,5-dimethyl-1-piperazinyl)(3-thienyl)methyl)phenol]
- Mean MPE [1, 9]: 3.51%
- Mean MPE [1, 10]: 8.77%
- Mean MPE [1, 11]: 22.82%
- Mean MPE [1, 12]: 7.90%
- Mean MPE [1, 13]: 9.65%
- Mean MPE [1, 14]: 2.63%
- Mean MPE [1, 15]: 1.8±1.8% and 1.76%
- Mean MPE [1, 16]: 0.88%
- MPE on Day 1 [1]: 100%
- time to maximal/complete tolerance [1]: 8 days
- Mean MPE [1, 17]: 80.7±15.2% and 80.7%
- Mean MPE [1, 18]: 64.9%
- Mean MPE [1, 19]: 81.6±12.6% and 81.6%
- Mean MPE [1, 20]: 42.1%
- Mean MPE [1, 21]: 50.9%
- Mean MPE [1, 22]: 57.0%
- Mean MPE [1, 23]: 30.7%
- Mean MPE [1, 24]: 26.3%
- Mean MPE [1, 25]: 100.0%
- Mean MPE [1, 26]: 100.0%
- Mean MPE [1, 27]: 100.0%
- Mean MPE [1, 28]: 100.0%
- Mean MPE [1, 29]: 99.1%
- Mean MPE [1, 30]: 100.0%
- Mean MPE [1, 31]: 79.8%
- Mean MPE [1, 32]: 88.2%
- Mean MPE [1, 33]: 84.7±10.0% and 84.7%
- Mean MPE [1, 34]: 66.7±10.9% and 66.7%
- Mean MPE [1, 35]: 81.1%
- Mean MPE [1, 36]: 69.7%
- Mean MPE [1, 37]: 70.6±12.3% and 70.6%
- Mean MPE [1, 38]: 72.8%
- Mean MPE [1, 39]: 75.0%
- Mean MPE [1, 40]: 51.3%
- Mean MPE [1, 41]: 75.9±9.5% and 75.9%
- Mean MPE [1, 42]: 40.8±11.2% and 40.8%
- Mean MPE [1, 43]: 47.4±11.9% and 47.4%
- Mean MPE [1, 44]: 28.5±9.3% and 28.5%
- Mean MPE ([1]; tolerance development, dose 11 (day 6), s.c. BID, 20 minutes post-drug): 34.2±12.5% and 34.2%
- Mean MPE ([1]; tolerance development, dose 11 (day 6), s.c. BID, 30 minutes post-drug): 21.1%
- Mean MPE ([1]; tolerance development, dose 12 (day 6.25), s.c. BID, 20 minutes post-drug): 37.7±12.7% and 37.7%
- Mean MPE ([1]; tolerance development, dose 12 (day 6.25), s.c. BID, 30 minutes post-drug): 11.8±7.9% and 11.8%
- antinociceptive effect / tolerance in DPI-125 tolerant animals [1]: no antinociceptive effects
- antinociceptive effect / tolerance in morphine tolerant animals [1]: only partially tolerant; also recorded: significant antinociceptive effects
- Therapeutic Ratio [2]: 14.4
- therapeutic index relative to morphine [2]: approximately 7 ×
- antinociceptive ED50 ([3]; DPI-125 tolerant animals): 1.218 mg/kg
- Fold Change of ED50 [3, 45]: 2.99 fold and 3.0 fold
- ED50 ([3]; DPI-125 tolerant animals): 1.22 mg/kg
- ED50 ([3]; morphine tolerant animals): 0.72 mg/kg
- ED50 ([3]; naive animals): 0.41 mg/kg
- potency in morphine tolerant animals relative to DPI-125 tolerant animals ([3]; more potent in morphine tolerant): 1.7 fold
- antinociceptive ED50 ([3]; morphine tolerant animals): 0.717 mg/kg
- antinociceptive ED50 ([3]; naive animals): 0.407 mg/kg
- Analgesic ED50 Tail Pinch [4]: 0.050 mg/kg
- analgesic potency relative to morphine [4]: > 40 ×
- antinociceptive potency relative to morphine [4]: 47 times
- ED50 (in vivo): 0.72 mg/kg
- emesis ([5]; even at the highest doses given): did not occur
- flushing, reddened mucous membranes or urticaria ([5]; in vivo): did not produce any
- seizure activity / seizure liability ([6]; EEG, first in human trial): no seizure activity was noted; also recorded: does not have seizure liability
- dysphoria as a side effect ([6]; first in human trial): nor does it exhibit dysphoria
- corrected QT intervals [6, 46]: No time- or dose-related trends
- deaths or serious AEs [6, 46]: no deaths or any other serious AEs reported
- most common drug-related AEs [6, 46]: somnolence, dizziness, and paraesthesia
- tolerability [6, 46]: well tolerated
- delta-opioid agonist activity [7]: acts as a delta-opioid agonist
- delta receptor agonist activity [8]: an agonist at the delta receptor
